Laboratory results from the NIST ThermoML archive (doi:10.1021/je060271a).

Conditions: Liquid, Vibrating tube method

CCCCCCC(=O)OCC(COC(=O)CCCCCC)(COC(=O)CCCCCC)COC(=O)CCCCCC [pentaerythritol tetraheptanoate]
Conditions	mass density [kg/m3]
323.15 K, 32352 kPa	976
323.15 K, 32396 kPa	976
323.15 K, 32734 kPa	976.2
323.15 K, 32779 kPa	976.2
323.15 K, 32824 kPa	976.2
323.15 K, 32870 kPa	976.3
323.15 K, 32924 kPa	976.3
323.15 K, 32970 kPa	976.3
323.15 K, 33016 kPa	976.4
323.15 K, 33072 kPa	976.4
323.15 K, 33118 kPa	976.4
323.15 K, 33164 kPa	976.4
323.15 K, 33219 kPa	976.5
323.15 K, 33314 kPa	976.4
323.15 K, 33463 kPa	976.7
323.15 K, 33519 kPa	976.7
323.15 K, 33566 kPa	976.7
323.15 K, 33612 kPa	976.6
323.15 K, 33657 kPa	976.7
323.15 K, 33718 kPa	976.7
323.15 K, 33778 kPa	976.7
323.15 K, 33830 kPa	976.8
323.15 K, 33882 kPa	976.7
323.15 K, 33940 kPa	976.9
323.15 K, 33970 kPa	976.8
323.15 K, 34065 kPa	976.9
323.15 K, 34098 kPa	977
323.15 K, 34123 kPa	977
323.15 K, 34149 kPa	977.1
323.15 K, 34181 kPa	977
323.15 K, 34207 kPa	977.1
323.15 K, 34235 kPa	977.1
323.15 K, 34262 kPa	977.1
323.15 K, 34295 kPa	977
323.15 K, 34323 kPa	977.2
323.15 K, 34351 kPa	977.1
323.15 K, 34379 kPa	977.2
323.15 K, 34415 kPa	977.1
323.15 K, 34444 kPa	977.2
323.15 K, 34481 kPa	977.2
323.15 K, 34513 kPa	977.3
323.15 K, 34545 kPa	977.2
323.15 K, 34570 kPa	977.3
323.15 K, 34571 kPa	977.2
323.15 K, 34574 kPa	977.2
323.15 K, 34576 kPa	977.3
323.15 K, 34578 kPa	977.2
323.15 K, 34581 kPa	977.3
323.15 K, 34584 kPa	977.2
323.15 K, 34586 kPa	977.3
323.15 K, 34589 kPa	977.3
323.15 K, 34593 kPa	977.2
323.15 K, 34596 kPa	977.3
323.15 K, 34600 kPa	977.3
323.15 K, 34605 kPa	977.3
323.15 K, 34611 kPa	977.3
323.15 K, 34616 kPa	977.2
343.13 K, 13322 kPa	950.4
343.13 K, 13336 kPa	950.3
343.13 K, 13347 kPa	950.4
343.13 K, 13362 kPa	950.3
343.13 K, 13471 kPa	950.5
343.13 K, 13485 kPa	950.5
343.14 K, 13145 kPa	950
343.14 K, 13156 kPa	950.2
343.14 K, 13167 kPa	950.1
343.14 K, 13180 kPa	950.2
343.14 K, 13192 kPa	950.3
343.14 K, 13203 kPa	950.3
343.14 K, 13216 kPa	950.2
343.14 K, 13227 kPa	950.2
343.14 K, 13238 kPa	950.2
343.14 K, 13252 kPa	950.1
343.14 K, 13263 kPa	950.3
343.14 K, 13274 kPa	950.4
343.14 K, 13286 kPa	950.4
343.14 K, 13300 kPa	950.3
343.14 K, 13311 kPa	950.2
343.14 K, 13373 kPa	950.2
343.14 K, 13384 kPa	950.4
343.14 K, 13399 kPa	950.4
343.14 K, 13410 kPa	950.5
343.14 K, 13420 kPa	950.4
343.14 K, 13431 kPa	950.5
343.14 K, 13448 kPa	950.3
343.14 K, 13460 kPa	950.4
343.14 K, 13497 kPa	950.4
343.14 K, 13509 kPa	950.4
343.14 K, 13521 kPa	950.4
343.14 K, 13535 kPa	950.5
343.14 K, 13547 kPa	950.5
343.14 K, 13560 kPa	950.6
343.14 K, 13574 kPa	950.5
343.14 K, 13586 kPa	950.6
343.14 K, 13598 kPa	950.5
343.14 K, 13610 kPa	950.6
343.14 K, 13622 kPa	950.6
343.14 K, 13636 kPa	950.6
343.14 K, 13648 kPa	950.7
343.14 K, 13870 kPa	950.7
343.14 K, 13883 kPa	950.7
343.14 K, 13898 kPa	950.7
343.14 K, 13911 kPa	950.8
343.14 K, 13926 kPa	950.7
343.14 K, 13938 kPa	950.8
343.14 K, 13951 kPa	950.8
343.14 K, 13964 kPa	950.8
343.14 K, 13977 kPa	950.7
343.14 K, 13992 kPa	950.8
343.14 K, 14004 kPa	950.8
343.14 K, 14018 kPa	950.8
343.14 K, 14033 kPa	950.8
343.14 K, 14046 kPa	950.8
343.14 K, 14058 kPa	950.9
343.14 K, 14074 kPa	950.7
343.14 K, 14087 kPa	950.9
343.14 K, 14100 kPa	950.9
343.14 K, 14113 kPa	950.8
343.14 K, 14129 kPa	950.8
343.14 K, 14142 kPa	950.8
343.14 K, 14157 kPa	951
343.14 K, 14170 kPa	951
343.14 K, 14183 kPa	951
343.14 K, 14199 kPa	951
343.14 K, 14212 kPa	950.9
343.14 K, 14225 kPa	950.9
343.14 K, 14239 kPa	951
343.14 K, 14255 kPa	951
343.14 K, 14268 kPa	950.9
343.14 K, 14281 kPa	951.1
343.14 K, 14298 kPa	951
343.14 K, 14311 kPa	951.1
343.14 K, 14324 kPa	951
343.14 K, 14340 kPa	950.9
343.14 K, 14354 kPa	951.1
343.14 K, 14367 kPa	951.1
343.14 K, 14383 kPa	951
343.14 K, 16135 kPa	952.3
343.14 K, 16152 kPa	952.4
343.14 K, 16173 kPa	952.3
343.14 K, 16190 kPa	952.3
343.14 K, 16208 kPa	952.3
343.14 K, 16228 kPa	952.4
343.14 K, 16245 kPa	952.4
343.14 K, 16263 kPa	952.3
343.14 K, 16283 kPa	952.4
343.14 K, 16301 kPa	952.4
343.14 K, 16319 kPa	952.4
343.14 K, 16339 kPa	952.5
343.14 K, 16357 kPa	952.5
343.14 K, 16376 kPa	952.4
343.14 K, 16394 kPa	952.5
343.14 K, 16415 kPa	952.5
343.14 K, 16433 kPa	952.5
343.14 K, 16451 kPa	952.7
343.14 K, 16472 kPa	952.5
343.14 K, 16490 kPa	952.5
343.14 K, 16508 kPa	952.6
343.14 K, 16526 kPa	952.6
343.14 K, 16548 kPa	952.6
343.14 K, 16566 kPa	952.5
343.14 K, 16585 kPa	952.6
343.14 K, 16607 kPa	952.7
343.14 K, 16626 kPa	952.7
343.14 K, 16645 kPa	952.7
343.14 K, 16664 kPa	952.6
343.14 K, 16682 kPa	952.6
343.14 K, 16704 kPa	952.7
343.14 K, 16722 kPa	952.8
343.14 K, 16744 kPa	952.8
343.14 K, 16763 kPa	952.7
343.14 K, 16781 kPa	952.7
343.14 K, 16800 kPa	952.7
343.14 K, 16822 kPa	952.8
343.14 K, 16841 kPa	952.8
343.14 K, 16863 kPa	952.8
343.14 K, 16901 kPa	952.8
343.14 K, 16924 kPa	952.8
343.14 K, 16943 kPa	952.9
343.14 K, 16962 kPa	953
343.14 K, 16981 kPa	952.9
343.14 K, 17004 kPa	952.9
343.14 K, 17022 kPa	953
343.14 K, 17042 kPa	953
343.14 K, 17065 kPa	953
343.14 K, 17084 kPa	953.1
343.14 K, 17107 kPa	952.9
343.14 K, 17126 kPa	952.9
343.14 K, 17146 kPa	953
343.14 K, 17165 kPa	953
343.14 K, 17188 kPa	953.1
343.14 K, 17208 kPa	953
343.14 K, 17227 kPa	953.1
343.14 K, 17251 kPa	953.1
343.14 K, 17270 kPa	953.2
343.14 K, 17294 kPa	953.2
343.14 K, 17314 kPa	953.2
343.14 K, 17334 kPa	953.1
343.14 K, 17358 kPa	953.1
343.14 K, 17378 kPa	953.1
343.14 K, 17398 kPa	953.2
343.14 K, 17419 kPa	953
343.14 K, 17443 kPa	953.1
343.14 K, 17593 kPa	953.4
343.14 K, 17613 kPa	953.2
343.14 K, 17638 kPa	953.3
343.14 K, 17659 kPa	953.4
343.14 K, 17680 kPa	953.3
343.14 K, 17701 kPa	953.4
343.14 K, 17722 kPa	953.4
343.14 K, 17747 kPa	953.4
343.14 K, 17768 kPa	953.5
343.14 K, 17789 kPa	953.5
343.14 K, 17815 kPa	953.5
343.14 K, 17835 kPa	953.5
343.14 K, 17860 kPa	953.4
343.14 K, 17902 kPa	953.5
343.14 K, 17928 kPa	953.4
343.14 K, 18040 kPa	953.6
343.14 K, 18066 kPa	953.6
343.14 K, 18088 kPa	953.5
343.14 K, 18109 kPa	953.6
343.14 K, 18130 kPa	953.7
